This passage reports IC50 results from PubChem BioAssay AID434933 (The Scripps Research Institute Molecular Screening Center, 2010).

Where “and” joins values, the source holds several entries; their conditions need not be identical. Equal values may be shown once. Calls of active or inactive are those of the source.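 How the source made its calls: active means compound with HepG2 cell viability IC50 of 10 micromolar or lower; inactive means IC50 above 10 micromolar.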

The experiment relates to HepG2 viability, CellTiter-Glo ATP luminescence. In words: cytotoxicity in HepG2 cells, late-stage follow-up, cytotoxicity control for TPT1 inhibitor project, cell-based, luminescence, dose response (AID 434933).
With `Cc1ccccc1N1C(=O)/C(=C/c2ccco2)C(=O)NC1=S`, the IC50 was > 79.4 µM (inactive) and 36.6 µM (inactive).

For the molecule `Cc1[nH]n(-c2ccc(S(=O)(=O)O)cc2)c(=O)c1N[N-]c1ccc(C2=CC(=O)/C(=N\[N-]c3ccc4c(S(=O)(=O)O)cc(S(=O)(=O)O)c(N)c4c3O)C=C2)cc1O.[Cu+].[Cu+]`, the IC50 is 53.6 µM (inactive).

`Cc1ccc(N2C(=O)NC(=O)/C(=C\c3ccc([N+](=O)[O-])o3)C2=O)cc1`: the IC50 was 53.5 µM (inactive).

In the case of `CC1=C(C#N)C(=O)N(C2CCS(=O)(=O)C2)C(=O)/C1=C\c1ccco1` (stereo not given), the IC50 was > 79.4 µM (inactive).

Take `COc1ccc(OC)c(N2C(=O)/C(=C/c3ccco3)C(=O)NC2=S)c1`: the IC50 was > 79.4 µM (inactive).

With `Cc1cc(C)n(Cc2ccc(C(=O)NN=Cc3ccc(-c4ccc([N+](=O)[O-])cc4)o3)o2)n1`, the IC50 was 72.7 µM (inactive).

In the case of `O=c1oc2c(O)c(O)cc3c(=O)oc4c(O)c(O)cc1c4c23`, the IC50 is > 79.4 µM (inactive).

For the molecule `NS(=O)(=O)c1cc(C(=O)NC2CCSc3ccccc32)ccc1Cl` (stereo not given), the IC50 is > 79.4 µM (inactive).

For `NC(=O)c1cc[n+](CC2=C(C(=O)O)N3C(=O)[C@@H](NC(=O)C(c4ccccc4)S(=O)(=O)O)[C@H]3SC2)cc1` (stereo not given in full), the IC50 is > 79.4 µM (inactive).

Take `OC(Cn1cncn1)(Cn1cncn1)c1ccc(F)cc1F`: the IC50 is > 79.4 µM (inactive).

As usually defined, the IC50 is the point on the concentration scale where inhibition reaches its midpoint.
